According to PubChem BioAssay AID977614 (Broad Institute, 2014):
Activity calls are given as the source filed them.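 Rule for the calls: active = parasite count per well reduced by over 3 SD from the mean, with host cell number above 80% of untreated; inactive = the rest.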

Tested on: L. donovani amastigotes in THP-1 macrophages, DAPI imaging, 72 h
Assay: antileishmanial activity in infected macrophages – imaging, THP-1 host macrophages, single concentration (AID 977614);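 note: signal is the parasite per host cell ratio from DAPI stained kinetoplasts and nuclei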

Row | SMILES | AC50
1 | C[C@H]1CN([C@@H](C)CO)C(=O)CCCn2nncc2CO[C@H]1CN(C)Cc1cccc2c1OCCCO2 | > 10 µM (inactive)
2 | COCCN(C[C@H]1[C@H](c2ccccc2)[C@H](CO)N1C(C)=O)C(=O)c1cccnc1 | > 10 µM (inactive)
3 | COc1ccc(NC(=O)N2C[C@H]3[C@@H](c4ccccc42)[C@H](CO)N3Cc2ccccn2)cc1 | > 10 µM (inactive)
4 | CC(=O)N1[C@H](CNC(=O)CN(C)C)[C@@H](c2ccc(C3=CCCCC3)cc2)[C@@H]1CO | > 10 µM (inactive)
5 | CCCC(=O)N1C[C@H]2[C@@H](c3ccccc31)[C@H](CO)N2C(=O)Nc1ccc(F)cc1 | > 10 µM (inactive)
6 | C[C@H](CO)N1C[C@H](C)[C@H](CN(C)C(=O)c2ccc(N3CCN(C)CC3)cc2)OCc2cnnn2CCCC1=O | > 10 µM (inactive)
7 | COc1ccc(CN(C)C[C@H]2OCc3cnnn3CCCC(=O)N([C@H](C)CO)C[C@@H]2C)cc1 | > 10 µM (inactive)
8 | COCC(=O)NC[C@H]1[C@H](c2ccccc2)[C@@H](CO)N1C(=O)c1ccccc1 | > 10 µM (inactive)
9 | C[C@@H]1CN([C@@H](C)CO)C(=O)CCCn2nncc2CO[C@H]1CN(C)C(=O)c1ccc2ccn(C)c2c1 | > 10 µM (inactive)
10 | C[C@H](CO)N1C[C@H](C)[C@H](CN(C)C(=O)Nc2cccc(C(F)(F)F)c2)OCc2cn(nn2)CCCC1=O | > 10 µM (inactive)
11 | CCS(=O)(=O)N(C)C[C@H]1[C@@H](c2ccccc2)[C@@H](CO)N1C(=O)CN(C)C | > 10 µM (inactive)
12 | O=C(c1ccc2c(c1)OCO2)N1C[C@H]2[C@@H](c3ccccc31)[C@@H](CO)N2Cc1cccnc1 | > 10 µM (inactive)
13 | CCC(=O)N1C[C@@H]2[C@H](c3ccccc31)[C@H](CO)N2Cc1ccc(F)cc1 | > 10 µM (inactive)
14 | C[C@H](CO)N1C[C@H](C)[C@@H](CN(C)C(=O)Oc2ccc3ccccc3c2)OCc2cn(nn2)CCCC1=O | > 10 µM (inactive)
15 | C[C@H](CO)N1C[C@H](C)[C@@H](CN(C)C(=O)NC2CCCC2)OCc2cnnn2CCCC1=O | > 10 µM (inactive)
16 | C[C@@H]1CN([C@@H](C)CO)C(=O)CCCn2nncc2CO[C@H]1CN(C)C(=O)Nc1ccnc(N2CCOCC2)c1 | > 10 µM (inactive)
17 | C/C=C/c1ccc([C@H]2[C@@H](CO)N(CCC)[C@H]2CNC(=O)CN2CCOCC2)cc1 | > 10 µM (inactive)
18 | CC(=O)NC[C@H]1[C@H](c2ccc(C3=CCCC3)cc2)[C@@H](CO)N1Cc1cccnc1 | > 10 µM (inactive)
19 | CN(C[C@H]1[C@H](c2ccccc2)[C@@H](CO)N1Cc1ccccn1)S(C)(=O)=O | > 10 µM (inactive)
20 | CC(C)NC(=O)N1[C@H](CO)[C@H]2c3ccccc3N(C)C[C@H]21 | > 10 µM (inactive)
21 | CN(C[C@H]1N[C@@H](CO)[C@H]1c1ccc(-c2cccc(F)c2)cc1)C(=O)CC1CC1 | > 10 µM (inactive)
22 | Cc1ccc(S(=O)(=O)N2C[C@@H]3[C@H](c4ccccc42)[C@@H](CO)N3Cc2cccnc2)cc1 | > 10 µM (inactive)
23 | CCC(=O)N1[C@H](CO)[C@H](c2ccc(-c3cccc(OC)c3)cc2)[C@@H]1CNC(C)=O | > 10 µM (inactive)
24 | O=C(c1ccccc1F)N1C[C@@H]2[C@H](c3ccccc31)[C@@H](CO)N2C(=O)Nc1ccccc1 | > 10 µM (inactive)
25 | CCC(=O)N1[C@H](CO)[C@H](c2ccc(C3=CCCC3)cc2)[C@@H]1CNC1CCCCC1 | > 10 µM (inactive)
26 | C[C@@H]1CN([C@@H](C)CO)C(=O)CCCn2nncc2CO[C@@H]1CN(C)Cc1ccc(C(=O)Nc2ccccc2N)cc1 | > 10 µM (inactive)

Row | SMILES | AC50
27 | O=C(c1ccccc1)N1C[C@@H]2[C@H](c3ccccc31)[C@H](CO)N2Cc1ccccn1 | > 10 µM (inactive)
28 | C[C@@H]1CN([C@@H](C)CO)C(=O)CCCn2nncc2CO[C@@H]1CN(C)C(=O)Nc1cccc(Oc2ccccn2)c1 | > 10 µM (inactive)
29 | C[C@@H]1CN([C@@H](C)CO)C(=O)CCCn2nncc2CO[C@@H]1CN(C)S(=O)(=O)c1cn(C)cn1 | > 10 µM (inactive)
30 | O=C(NC[C@@H]1[C@@H](c2ccccc2)[C@H](CO)N1C(=O)Cc1ccncc1)C1CCC1 | > 10 µM (inactive)
31 | C[C@@H]1CN([C@H](C)CO)C(=O)CCCn2cc(nn2)CO[C@H]1CN(C)C(=O)Nc1ccc2c(c1)OCO2 | > 10 µM (inactive)
32 | O=C(Cc1ccccn1)N1[C@H](CO)[C@@H]2c3ccccc3NC[C@@H]21 | > 10 µM (inactive)
33 | Cc1cccc(S(=O)(=O)N2C[C@H]3[C@@H](c4ccccc42)[C@H](CO)N3CC2CCCC2)c1 | > 10 µM (inactive)
34 | COc1ccccc1NC(=O)N1C[C@H]2[C@@H](c3ccccc31)[C@@H](CO)N2Cc1ccc2c(c1)OCO2 | > 10 µM (inactive)
35 | OC[C@@H]1[C@@H]2c3ccccc3NC[C@@H]2N1Cc1cccnc1 | > 10 µM (inactive)
36 | O=C(Nc1cccc(F)c1)N1C[C@H]2[C@@H](c3ccccc31)[C@@H](CO)N2C(=O)Cc1ccccn1 | > 10 µM (inactive)
37 | O=C(c1cnccn1)N1C[C@H]2[C@@H](c3ccccc31)[C@@H](CO)N2CC1CCCC1 | > 10 µM (inactive)
38 | CNC[C@@H]1OCc2cn(nn2)CCCC(=O)N([C@@H](C)CO)C[C@@H]1C | > 10 µM (inactive)
39 | CCC(=O)N1[C@@H](CO)[C@H](c2ccccc2)[C@@H]1CN(C)C(=O)CN1CCOCC1 | > 10 µM (inactive)
40 | C[C@@H]1CN([C@@H](C)CO)C(=O)CCCn2nncc2CO[C@H]1CN(C)S(=O)(=O)c1ccc2c(c1)OCCCO2 | > 10 µM (inactive)
41 | C/C=C/c1ccc([C@H]2[C@@H](CO)N(C(C)=O)[C@@H]2CN(CC)C(=O)CN(C)C)cc1 | > 10 µM (inactive)
42 | Cc1noc(C)c1NC(=O)N(C)C[C@H]1OCc2cn(nn2)CCCC(=O)N([C@@H](C)CO)C[C@@H]1C | > 10 µM (inactive)
43 | O=C(CC1CC1)N1[C@@H]2CN(S(=O)(=O)c3ccccc3F)c3ccccc3[C@@H]2[C@@H]1CO | > 10 µM (inactive)
44 | C[C@H](CO)N1C[C@H](C)[C@H](CN(C)C(=O)Oc2cccc3ccccc23)OCc2cnnn2CCCC1=O | > 10 µM (inactive)
45 | CCC(=O)N1[C@H](CO)[C@H](c2ccc(-c3cncnc3)cc2)[C@@H]1CN(C)C(C)=O | > 10 µM (inactive)
46 | O=C(NC[C@H]1[C@@H](c2ccccc2)[C@H](CO)N1Cc1cccnc1)c1ccccn1 | > 10 µM (inactive)
47 | O=C(Nc1ccccc1F)N1C[C@@H]2[C@H](c3ccccc31)[C@H](CO)N2C(=O)Cc1cccnc1 | > 10 µM (inactive)
48 | CCN(C[C@@H]1[C@H](c2ccccc2)[C@H](CO)N1C(=O)COC)S(C)(=O)=O | > 10 µM (inactive)
49 | CCCNC(=O)N1C[C@@H]2[C@H](c3ccccc31)[C@@H](CO)N2Cc1cccc(OC)c1 | > 10 µM (inactive)
50 | COCC(=O)NC[C@@H]1[C@H](c2ccccc2)[C@H](CO)N1C(=O)c1ccccc1 | > 10 µM (inactive)
51 | CC(C)NC(=O)N1[C@H](CO)[C@@H](c2ccccc2)[C@@H]1CN(C)C(=O)c1cccnc1 | > 10 µM (inactive)
52 | O=C(NC[C@H]1N[C@H](CO)[C@H]1c1ccccc1)c1ccccc1F | > 10 µM (inactive)

Row | SMILES | AC50
53 | CCCC(=O)N1C[C@@H]2[C@H](c3ccccc31)[C@@H](CO)N2C(=O)Nc1ccc(F)cc1 | > 10 µM (inactive)
54 | CCC(=O)N1[C@H](CO)[C@@H]2c3ccccc3N(C(=O)c3cnccn3)C[C@@H]21 | > 10 µM (inactive)
55 | CNC[C@@H]1OCc2cnnn2CCCC(=O)N([C@@H](C)CO)C[C@@H]1C | > 10 µM (inactive)
56 | C[C@H](CO)N1C[C@H](C)[C@H](CN(C)C(=O)NC2CCCCC2)OCc2cn(nn2)CCCC1=O | > 10 µM (inactive)
57 | CN1[C@H](CO)[C@H]2c3ccccc3N(C(=O)Nc3cc(F)ccc3F)C[C@H]21 | > 10 µM (inactive)
58 | O=C(Cc1cccnc1)N1[C@H](CNCC2CCC2)[C@H](c2ccccc2)[C@@H]1CO | > 10 µM (inactive)
59 | Cc1noc(C)c1NC(=O)N(C)C[C@H]1OCc2cnnn2CCCC(=O)N([C@H](C)CO)C[C@@H]1C | > 10 µM (inactive)
60 | C/C=C/c1ccc([C@H]2[C@@H](CNC(C)=O)N(C(=O)Cc3ccncc3)[C@H]2CO)cc1 | > 10 µM (inactive)
61 | CNC[C@H]1OCc2cnnn2CCCC(=O)N([C@H](C)CO)C[C@@H]1C | > 10 µM (inactive)
62 | C[C@H]1CN([C@@H](C)CO)C(=O)CCCn2nncc2CO[C@@H]1CN(C)C(=O)Nc1ccc2c(c1)OCCO2 | > 10 µM (inactive)
63 | O=S(=O)(NC[C@@H]1[C@@H](c2ccccc2)[C@@H](CO)N1CC1CC1)c1ccccc1 | > 10 µM (inactive)
64 | C[C@H](CO)N1C[C@H](C)[C@@H](CN(C)S(=O)(=O)c2cccc(C#N)c2)OCc2cn(nn2)CCCC1=O | > 10 µM (inactive)
65 | C[C@H](CO)N1C[C@H](C)[C@@H](CN(C)C(=O)Nc2ccc3c(c2)OCO3)OCc2cn(nn2)CCCC1=O | > 10 µM (inactive)
66 | CCCC(=O)N1C[C@H]2[C@@H](c3ccccc31)[C@@H](CO)N2C(=O)Nc1ccc(F)cc1 | > 10 µM (inactive)
67 | CCN(C[C@@H]1[C@@H](c2ccccc2)[C@@H](CO)N1CC1CC1)C(=O)c1ccccn1 | > 10 µM (inactive)
68 | OC[C@H]1[C@@H]2c3ccccc3NC[C@@H]2N1Cc1ccccc1Cl | > 10 µM (inactive)
69 | CNC[C@H]1OCc2cn(nn2)CCCC(=O)N([C@@H](C)CO)C[C@@H]1C | > 10 µM (inactive)
70 | CN1[C@@H]2CNc3ccccc3[C@@H]2[C@@H]1CO | > 10 µM (inactive)
71 | C[C@@H]1CN([C@@H](C)CO)C(=O)CCCn2nncc2CO[C@H]1CN(C)CC1CCCCC1 | > 10 µM (inactive)
72 | CC(C)N(C[C@H]1[C@H](c2ccccc2)[C@@H](CO)N1S(C)(=O)=O)C(=O)CN(C)C | > 10 µM (inactive)
73 | C[C@H]1CN([C@@H](C)CO)C(=O)CCCn2nncc2CO[C@H]1CN(C)C(=O)Oc1cccc2ccccc12 | > 10 µM (inactive)
74 | C[C@@H]1CN([C@@H](C)CO)C(=O)CCCn2cc(nn2)CO[C@@H]1CN(C)C(=O)Nc1cccc2ccccc12 | > 10 µM (inactive)
75 | CNC[C@H]1OCc2cnnn2CCCC(=O)N([C@H](C)CO)C[C@H]1C | > 10 µM (inactive)
76 | C[C@H]1CN([C@@H](C)CO)C(=O)CCCn2cc(nn2)CO[C@@H]1CN(C)Cc1ccccc1 | > 10 µM (inactive)
77 | O=C(NC[C@@H]1N[C@@H](CO)[C@H]1c1ccccc1)c1ccccc1F | > 10 µM (inactive)
